Assay results from article PMC10610023, “Nucleoside Analog 2′,3′-Isopropylidene-5-Iodouridine as Novel Efficient Inhibitor of HIV-1” (Pharmaceutics, 2023).
Like-named read-outs stand apart in the source and are kept apart here.

Columns and labels:
[1] = system: HIV-1 based replication-defective lentiviral particles; experiment: microbe, parasite or virus in culture; format: cell-based; details: for EC50: Human immunodeficiency virus 1, Jurkat, 72 h
[2] = Cell viability analysis, Trypan blue staining, CEM-ss cells; format: cell-based, human; details: human, CEM-ss cells, 0–30 μM
Protocol: (§1) In this study, we used Jurkat and CEM-ss (human T-lymphoblastic leukemia) cells cultured in RPMI-1640 medium and HEK293T (human embryonic kidney cells) cells cultured in a DMEM medium. Growth medium was supplemented with 10% FBS (fetal bovine serum), 2 mM L-glutamine, 1mM sodium pyruvate, 100 μg/mL of streptomycin, and 100 units/mL of penicillin (Gibco/Invitrogen Life technologies). Cells were cultured at 37 °C in a humidified atmosphere with 5% CO2.
(§2) Palbociclib was dissolved in H2O. At 72 h after treatment, cell viability was assessed by staining with a 0.4% Trypan blue solution (Invitrogene Corp., Carlsbad, CA, USA) by counting in a Neubauer chamber. CC50s were calculated by nonlinear regression with variable slope (four parameters) and robust fitting using the GraphPad Prism software v.8.4.3 (GraphPad Software, San Diego, CA, USA).

[3] = system: HIV-1 based replication-defective lentiviral particles; experiment: microbe, parasite or virus in culture; format: cell-based; details: for EC50: Human immunodeficiency virus 1, CEM-SS, 72 h
[4] = Cell viability analysis, Trypan blue staining, Jurkat cells; format: cell-based, human; details: human, 72 h
Protocol: as §1, §2

Jurkat cells [5] = experiment: Cell cycle analysis, propidium iodide staining, Jurkat cells; format: cell-based, human; details: concentrations up to 12 nM
Protocol: (§3) Apoptosis was measured by double staining with Annexin V-FITC (Invitrogene, Thermo Scientific, Waltham, MA, USA) and propidium iodide (PI) (Sigma, Cibolo, TX, USA) 72 h after transduction. To measure the distribution of cells in the phases of the cell cycle, Jurkat cells were fixed in ethanol and stained with propidium iodide. All measurements were performed on an LSR Fortessa flow cytometer (BD Biosciences, San Jose, CA, USA). […] Analysis of cell cycle rate was performed with ModFit LT software v.4.1.7 (Verity Software House, Topsham, ME, USA).

[6] = system: HIV-1 based replication-defective lentiviral particles; experiment: Drug combination analysis Palbociclib with AZT or 2f, VP-GFP transduction of Jurkat cells; format: cell-based; details: for inhibition at 0.0029 µM / inhibition at 0.0059 µM / inhibition at 0.0117 µM: Human immunodeficiency virus 1, Jurkat, read-out: Inhibition efficiency, %, Jurkat; for drug interaction with Palbociclib (ZIP synergy): pre-treated with Palbociclib 12 h
Protocol: At 48 h post treatment with viral particles encoding marker GFP, the transduction efficiency was measured by flow cytometry (Figure 6E). In both combinations, Palbociclib was used in concentrations of ~3 nM, ~6 nM, or ~12 nM. […] Then, the dose-response matrixes were used to calculate synergy scores using ZIP algorithm (Figure 6F,G).

Jurkat cells [7] = experiment: Cell viability analysis, Trypan blue staining, Jurkat cells; format: cell-based, human
Protocol: as §1, §2

Jurkat cells [8] = experiment: Apoptosis analysis, Annexin V-FITC/PI staining, Jurkat cells; format: cell-based, human; details: 72 h, concentrations up to 12 nM
Protocol: as §3

CEM-ss cells = experiment: Cell viability analysis, Trypan blue staining, CEM-ss cells; format: cell-based, human; details: 72 h, concentrations up to 30 μM
Protocol: as §1, §2

[9] = system: HIV-1 based replication-defective lentiviral particles; experiment: Drug combination analysis AZT with 2f, VP-GFP transduction of Jurkat cells
Protocol: (§4) In our experiments, we decided not to exceed the concentration of 30 μM of each drug in order to exclude the possible side effects of DMSO; concentration in a well for these experiments was not more than 0.06%. The equivalent concentration of DMSO (0.06%) was used in control samples of cells not treated with drugs. […] At 72 h after transduction, the percentage of eGFP-positive cells was determined by flow cytometry (LSR Fortessa, BD Biosciences, Heidelberg, Germany). […] Analysis of the eGFP positive cells percentage was performed with FlowJo software 10.0.7 (FlowJo LLC, Ashland, OR, USA).
(§5) For this we used both compounds at the wide range of concentrations.
(§6) Next, the synergy distribution plots were generated and analyzed using the Synergy Finder v3.0 web source. We used the ZIP model to calculate synergy scores that were used to interpret drug interaction relationships. Scores larger than 10 mean that the interaction between two drugs is synergistic. Scores up to 10 mean that the interaction is likely to be additive.

[10] = system: HIV-1 based replication-defective lentiviral particles; experiment: Drug combination analysis AZT with 2f, VP-GFP transduction of CEM-ss cells; details: AZT and 2f in combination, up to 30 μM each
Protocol: as §4, §5, §6

[11] = 72 h, concentrations up to 30 μM

## CC1(C)O[C@@H]2[C@H](O1)[C@@H](CO)O[C@H]2n1ccc(=O)[nH]c1=O [2a, 2′,3′-O-isopropylideneuridine]
[1]
  EC50: > 30 µM
[2]
  CC50 at 72 h: > 30 µM
[3]
  EC50: > 30 µM
[4]; 0–30 μM
  CC50 at 72 h: > 30 µM

## CC(=O)c1c(C)c2cnc(Nc3ccc(N4CCNCC4)cn3)nc2n(C2CCCC2)c1=O [Palbociclib]
Jurkat cells [5]
  effect on cell cycle progression: did not find any effect on cell cycle progression
[6]; Palbociclib alone 2.9 nM (2f 0 nM, matrix of panel G)
  inhibition at 0.0029 µM: 10.8%
[6]; Palbociclib alone 2.9 nM (AZT 0 nM, matrix of panel F)
  inhibition at 0.0029 µM: 8.03%
[6]; Palbociclib alone 5.9 nM (2f 0 nM, matrix of panel G)
  inhibition at 0.0059 µM: 5.66%
[6]; Palbociclib alone 5.9 nM (AZT 0 nM, matrix of panel F)
  inhibition at 0.0059 µM: 8.75%
[6]; Palbociclib alone 11.7 nM (2f 0 nM, matrix of panel G)
  inhibition at 0.0117 µM: 3.9%
[6]; Palbociclib alone 11.7 nM (AZT 0 nM, matrix of panel F)
  inhibition at 0.0117 µM: 0.83%
[6]; Jurkat, Palbociclib alone, ~3, ~6 or ~12 nM
  suppressive effect on transduction efficiency of VP-GFP: not more than 10%
Jurkat cells [7]; concentrations up to 12 nM
  effect on cell survival: not to affect cell survival
[4]; Jurkat cells, Palbociclib 0–6 μM
  CC50 at 72 h: 0.141 ± 0.0256 µM
Jurkat cells [8]
  induction of apoptosis: does not cause the induction of apotosis

## CC1(C)O[C@@H]2[C@H](O1)[C@@H](CO)O[C@H]2n1cc(F)c(=O)[nH]c1=O [2c, 2′,3′-O-isopropylidene-5-fluorouridine]
CEM-ss cells
  effect on cell survival: significant suppressive effect on the survival
[2]
  CC50 at 72 h: 8.4 ± 2.2 µM
Jurkat cells [7]; [11]
  effect on cell survival: significant suppressive effect on the survival
[4]; 0–30 μM
  CC50 at 72 h: 7.9 ± 0.6 µM

## CC1(C)O[C@@H]2[C@H](O1)[C@@H](CO)O[C@H]2n1cc(Br)c(=O)[nH]c1=O [2e, 2′,3′-O-isopropylidene-5-bromouridine]
[1]
  EC50: > 30 µM
[2]
  CC50 at 72 h: > 30 µM
[3]
  EC50: > 30 µM
[4]; 0–30 μM
  CC50 at 72 h: > 30 µM

## CC1(C)O[C@@H]2[C@H](O1)[C@@H](CO)O[C@H]2n1cc(I)c(=O)[nH]c1=O [2f, 2′,3′-O-isopropylidene-5-ioduridine]
[9]; 2f 12 μM supplemented with AZT 12 μM, compared with 2f alone 30 μM (90%)
  suppression of VP-GFP transduction efficiency: same activity
[9]; AZT and 2f in combination, up to 30 μM each
  drug interaction (ZIP synergy, SynergyFinder): do not act synergistically
[9]; compound alone, 12 μM
  suppression of VP-GFP transduction efficiency: 70%
[9]; compound alone, 30 μM
  suppression of VP-GFP transduction efficiency: 90%
[1]
  effect on transduction efficiency of HIV-1 lentiviral particles (VP-GFP): caused the suppression of the transduction efficiency
  EC50: 10.5 ± 1.2 µM
[10]
  drug interaction (ZIP synergy, SynergyFinder): do not act synergistically
[2]
  CC50 at 72 h: > 30 µM
[3]
  EC50: 13.1 ± 1.3 µM
[6]; Jurkat
  drug interaction with Palbociclib (ZIP synergy): acts synergistically
[4]; 0–30 μM
  CC50 at 72 h: > 30 µM

## Cc1cn([C@@H]2O[C@H](CO)[C@H]3OC(C)(C)O[C@H]32)c(=O)[nH]c1=O [2b, 2′,3′-O-isopropylidene-5-methyluridine]
[1]
  EC50: > 30 µM
[2]
  CC50 at 72 h: > 30 µM
[3]
  EC50: > 30 µM
[4]; 0–30 μM
  CC50 at 72 h: > 30 µM

## CC1(C)O[C@@H]2[C@H](O1)[C@@H](CO)O[C@H]2n1cc(Cl)c(=O)[nH]c1=O [2d, 2′,3′-O-isopropylidene-5-chlorouridine]
[1]
  EC50: > 30 µM
[2]
  CC50 at 72 h: > 30 µM
[3]
  EC50: > 30 µM
[4]; 0–30 μM
  CC50 at 72 h: > 30 µM

## Cc1cn([C@H]2C[C@H](N=[N+]=[N-])[C@@H](CO)O2)c(=O)[nH]c1=O [AZT, 3′-Azido-2′,3′-dideoxythymidine, reference compound]
[1]
  EC50: 0.4 ± 0.1 µM
[1]; Jurkat, from 2 μM up to 30 μM
  cells remaining GFP positive (plateau effect): about 30%
CEM-ss cells
  effect on cell survival: did not affect cell survival
[2]
  CC50 at 72 h: > 30 µM
[3]; CEM-ss, from 2 μM up to 30 μM
  cells remaining GFP positive (plateau effect): about 20%
[3]
  EC50: 0.0122 ± 0.0114 µM
[6]; Jurkat
  drug interaction with Palbociclib (ZIP synergy): no synergistic action
Jurkat cells [7]; [11]
  effect on cell survival: did not affect cell survival
[4]; Jurkat cells, 0–30 μM
  CC50 at 72 h: > 30 µM
